Laboratory results: patent US7429612B2, “Indoline compound and medicinal use thereof” (Kyoto Pharmaceutical Industries, Ltd., priority 2002, dated 2008)
Counter-ions that a name gives are not always drawn.

Assays:
hepatic ACAT = experiment: Hepatic ACAT inhibitory activity (rabbit liver microsomes, [1-14C]-oleoyl CoA); format: biochemical, Japanese white rabbits; details: Concentration: 10^-6 M; inhibition of cholesteryl oleate production vs control
Protocol: A high cholesterol feed [a feed added with cholesterol (1%), Clea Japan, Inc.] was fed to male Japanese white rabbits weighing 2-2.5 kg at 100 g per day and the rabbits were bred for 4 weeks. The rabbits were killed by bleeding under anesthesia and liver was removed. The liver was homogenated, and the homogenate was centrifuged at 4° C. and 10,000 rpm for 15 min. The obtained supernatant was further centrifuged at 4° C. and 41,000 rpm for 60 minutes to give microsomal fractions. The microsomal suspension as an enzyme sample, dimethyl sulfoxide (DMSO, […]) or a test compound dissolved in DMSO (test compound solution 3 μl), and reaction substrate [1-^14C]-oleoyl CoA were added to 0.15 M phosphate buffer to the total amount of 300 μl. After incubation at 37° C. for 20 minutes, a chloroform-methanol mixture was added to stop the reaction. Water was added thereto and mixed, and the chloroform layer was separated. The solvent was evaporated to dryness, and the residue was redissolved in n-hexane. The mixture was subjected to thin layer chromatography using a silica gel plate. The spots of cholesteryl oleate on the silica gel plate were scraped, and quantitatively assayed on lo a liquid scintillation counter.

[1] = tested on: THP-1 cell-derived macrophages; experiment: THP-1 cell-derived macrophage foam cell formation suppressing effect (cholesterol ester accumulation inhibitory effect); format: cell-based; details: Concentration: 10^-6 M, acetyl LDL, 3 days culture; for inhibition at 1 µM: Homo sapiens, THP-1, 72 h, read-out: foam cell formation inhibitory rate (%)
Protocol: THP-1 (Dainippon Pharmaceutical Co., Ltd.) cells were passage cultured in RPMI-1640 medium supplemented with 10% fetal bovine serum (FBS), and the cells of passages 6-13 after purchase were used. The cells were suspended in FBS-containing RPMI-1640 medium to give a suspension having a concentration of 4×10^5 cells/mL. The cell suspension was inoculated to a 12 well microplate by 1 mL, and treated with phorbol 12-myristate 13-acetate (PMA, 200 nM) as a differentiation inducing agent into macrophage. Then acetyl LDL 400 μg/mL prepared separately from plasma-derived LDL of genetically hyperlipidemia rabbit (KHC rabbit, Japan Laboratory Animals, Inc.) was added. In addition, a test compound dissolved in DMSO and diluted with FBS-containing RPMI-1640 medium or a control solvent was added. After culture in a carbon dioxide incubator for 3 days, the cells were washed with phosphate buffered physiological saline (pH 7.0), and the lipid was extracted with n-hexane/isopropanol (3:2). The cells were dissolved in 1M-NaOH and the protein amount was measured. The free cholesterol and cholesterol ester in a lipid extraction sample was measured by the method of Kunitomo et al. (1983). The cholesterol ester was compared between the control cell and the test compound-treated cells, and the cholesterol ester accumulation inhibitory rate of the test compound was calculated.

| SMILES | Hepatic ACAT inhibitory ratio (%) (hepatic ACAT) | inhibition at 1 µM [1] [%] | foam cell formation inhibitory rate (%) [1] [%] |
| --- | --- | --- | --- |
| CCCN1c2c(c(C)c(NS(N)(=O)=O)c(C)c2NC(=O)C(C)(C)C)CC1CSCC.Cl (centres unmarked) [Example 59, N-(2-ethylthiomethyl-4,6-dimethyl-1-propyl-5-sulfamoylaminoindolin-7-yl)-2,2-dimethylpropanamide hydrochloride] | 98.1 | 92.1 |  |
| CCCCCCC(C)(C)C(=O)Nc1c(C)c2c(c(NS(=O)(=O)C(C)C)c1C)NCC2 [Example 24, N-[4,6-dimethyl-7-(2-propanesulfonylamino)indolin-5-yl]-2,2-dimethyloctanamide] | 95.7 | 90.5 |  |
| CSCCN1CCc2c(C)c(NS(N)(=O)=O)c(C)c(NC(=O)C(C)(C)C)c21.Cl [Example 61, N-[4,6-dimethyl-1-(2-methylthioethyl)-5-sulfamoylaminoindolin-7-yl]-2,2-dimethylpropanamide hydrochloride] | 95.4 |  |  |
| Cc1c2c(c(NC(=O)C(C)(C)C)c(C)c1NS(N)(=O)=O)N(CCC(C)C)CC2.Cl [Example 20, N-[1-(3-methylbutyl)-4,6-dimethyl-5-sulfamoylaminoindolin-7-yl]-2,2-dimethylpropanamide hydrochloride] | 95.7 | 74.7 |  |
| CCCCCCCCS(=O)(=O)Nc1c(C)c(NC(=O)C(C)(C)C)c(C)c2c1NCC2 [Example 29, N-[4,6-dimethyl-7-(1-octanesulfonylamino)indolin-5-yl]-2,2-dimethylpropanamide] | 79.5 |  |  |
| CCCCCCCCCC(C)(C)C(=O)Nc1c(C)c2c(c(NS(C)(=O)=O)c1C)NCC2 [Example 8, N-(7-methanesulfonylamino-4,6-dimethylindolin-5-yl)-2,2-dimethylundecanamide] | 96.3 | 89.2 |  |
| CCCCCCCCCC(C)(C)C(=O)Nc1c(C)c2c(c(NS(=O)(=O)c3ccc(C)cc3)c1C)NCC2 [Example 25, N-[4,6-dimethyl-7-(p-toluene)sulfonylaminoindolin-5-yl]-2,2-dimethylundecanamide] | 94.3 |  | 89.4 |
| CCOCCN1c2c(c(C)c(NS(N)(=O)=O)c(C)c2NC(=O)C(C)(C)C)CC1C (centres unmarked) [Example 54, N-[1-(2-ethoxyethyl)-2,4,6-trimethyl-5-sulfamoylaminoindolin-7-yl]-2,2-dimethylpropanamide hydrochloride] |  | 64.5 |  |
| CCCCCCCCN1CCc2c(C)c(NC(N)=O)c(C)c(NC(=O)C(C)(C)C)c21.Cl [Example 7, N-(4,6-dimethyl-1-octyl-5-ureidoindolin-7-yl)-2,2-dimethylpropanamide hydrochloride] | 95.7 | 90.9 |  |
| CCCCCCCCN1CCc2c(C)c(NS(N)(=O)=O)c(C)c(NC(=O)C(C)(C)C)c21.Cl [Example 6, N-(4,6-dimethyl-1-octyl-5-sulfamoylaminoindolin-7-yl)-2,2-dimethylpropanamide hydrochloride] | 97.4 | 91.2 |  |
| Cc1c2c(c(NC(=O)C(C)(C)C)c(C)c1NS(N)(=O)=O)N(CC(C)C)CC2.Cl [Example 21, N-[1-(2-methylpropyl)-4,6-dimethyl-5-sulfamoylaminoindolin-7-yl]-2,2-dimethylpropanamide hydrochloride] | 92.7 | 77.1 |  |
| CCCCN1CCc2c(C)c(NS(N)(=O)=O)c(C)c(NC(=O)C(C)(C)C)c21.Cl [Example 19, N-(1-butyl-4,6-dimethyl-5-sulfamoylaminoindolin-7-yl)-2,2-dimethylpropanamide hydrochloride] | 93.4 | 73.3 |  |
| CCCN1c2c(c(C)c(NS(N)(=O)=O)c(C)c2NC(=O)C(C)(C)C)CC1COC.Cl (centres unmarked) [Example 50, N-(2-methoxymethyl-4,6-dimethyl-1-propyl-5-sulfamoylaminoindolin-7-yl)-2,2-dimethylpropanamide hydrochloride] | 86.2 | 73.6 |  |
| CCCCCCCCN1CCc2c(C)c(CNS(C)(=O)=O)c(C)c(NC(=O)C(C)(C)C)c21.Cl [Example 10, N-(5-methanesulfonylaminomethyl-4,6-dimethyl-1-octylindolin-7-yl)-2,2-dimethylpropanamide hydrochloride] | 87.3 |  |  |
| CCSCCN1CCc2c(C)c(NS(N)(=O)=O)c(C)c(NC(=O)C(C)(C)C)c21.Cl [Example 60, N-[1-(2-ethylthioethyl)-4,6-dimethyl-5-sulfamoylaminoindolin-7-yl]-2,2-dimethylpropanamide hydrochloride] | 97.2 |  |  |
| CCCN1c2c(c(C)c(NS(N)(=O)=O)c(C)c2NC(=O)C(C)(C)C)CC1COCC (centres unmarked) [Example 51, N-(2-ethoxymethyl-4,6-dimethyl-1-propyl-5-sulfamoylaminoindolin-7-yl)-2,2-dimethylpropanamide hydrochloride] |  | 86 |  |
| CCCCCCCCN1CCc2c(C)c(NS(=O)(=O)NC(C)=O)c(C)c(NC(=O)C(C)(C)C)c21 [Example 3, N-[5-(N-acetylsulfamoylamino)-4,6-dimethyl-1-octylindolin-7-yl]-2,2-dimethylpropanamide] | 89.3 |  |  |
| CCCN1c2c(c(C)c(NS(N)(=O)=O)c(C)c2NC(=O)C(C)(C)C)CC1CSC.Cl (centres unmarked) [Example 57, N-(4,6-dimethyl-2-methylthiomethyl-1-propyl-5-sulfamoylaminoindolin-7-yl)-2,2-dimethylpropanamide hydrochloride] | 94.2 | 79.9 |  |
| CCCCCCCCCC(C)(C)C(=O)Nc1c(C)c2c(c(NS(N)(=O)=O)c1C)NCC2.Cl [Example 26, N-(4,6-dimethyl-7-sulfamoylaminoindolin-5-yl)-2,2-dimethylundecanamide hydrochloride] | 95.4 | 75.3 |  |
| CCCCCCCCN1CCc2c(C)c(NS(=O)(=O)NC(=O)OC)c(C)c(NC(=O)C(C)(C)C)c21 [Example 4, N-[5-(N-methoxycarbonylsulfamoylamino)-4,6-dimethyl-1-octylindolin-7-yl]-2,2-dimethylpropanamide] | 75.8 |  |  |
| Cc1c2c(c(NC(=O)C(C)(C)C)c(C)c1NS(N)(=O)=O)N(C1CCCC1)CC2.Cl [Example 43, N-(1-cyclopentyl-4,6-dimethyl-5-sulfamoylaminoindolin-7-yl)-2,2-dimethylpropanamide hydrochloride] | 90.9 | 58.7 |  |
| CCCCCCCCCC(C)(C)C(=O)Nc1c(C)c2c(c(NS(C)(=O)=O)c1C)N(C)CC2 [Example 9, N-(7-methanesulfonylamino-1,4,6-trimethylindolin-5-yl)-2,2-dimethylundecanamide] |  | 70.9 |  |
| CCOCCN1CCc2c(C)c(NS(N)(=O)=O)c(C)c(NC(=O)C(C)(C)C)c21.Cl [Example 46, N-[1-(2-ethoxyethyl)-4,6-dimethyl-5-sulfamoylaminoindolin-7-yl]-2,2-dimethylpropanamide hydrochloride] | 89.2 | 59.1 |  |
| CCCCCCCCCC(C)(C)C(=O)Nc1c(C)c2c(c(NS(=O)(=O)C(C)C)c1C)NCC2.Cl [Example 23, N-[4,6-dimethyl-7-(2-propanesulfonylamino)indolin-5-yl]-2,2-dimethylundecanamide hydrochloride] | 96.2 | 90.5 |  |
| CCCCCCCCN1CCc2c(C)c([N+](=O)[O-])c(C)c(NC(=O)C(C)(C)C)c21 [Example 1, N-(4,6-dimethyl-5-nitro-1-octylindolin-7-yl)-2,2-dimethylpropanamide] | 97.4 |  |  |
| CCCCCCCCCC(C)(C)C(=O)Nc1c(C)c2c(c(NC(N)=O)c1C)NCC2 [Example 27, N-(4,6-dimethyl-7-ureidoindolin-5-yl)-2,2-dimethylundecanamide] | 78.6 |  |  |
